In patent publication US20180186742A1, “PICOLINAMIDES AS FUNGICIDES” (Dow AgroSciences LLC, priority 2017, published 2018):
Like-named read-outs stand apart in the source and are kept apart here.

Key:
Puccinia triticina = experiment: Wheat brown rust (PUCCRT), disease control on wheat seedlings; type: in vivo; conditions: for pest or weed control at 121.5 g/ha: low volume application at 121.5 g/H; for pest or weed control at 100 ppm: high volume application at 100 ppm
Method: Technical grades of materials were dissolved in acetone, which were then mixed with nine volumes of water containing 110 ppm Triton X-100. The fungicide solutions were applied onto wheat seedlings using an automated booth sprayer to run-off. All sprayed plants were allowed to air dry prior to further handling. All fungicides were evaluated using the aforementioned method for their activity vs. all target diseases, unless stated otherwise. Wheat leaf blotch and brown rust activity were also evaluated using track spray applications, in which case the fungicides were formulated as EC formulations, containing 0.1% Trycol 5941 in the spray solutions. Wheat plants (variety Yuma) were grown from seed in a greenhouse in 50% mineral soil/50% soil-less Metro mix until the first leaf was fully emerged, with 7-10 seedlings per pot. These plants were inoculated with an aqueous spore suspension of Puccinia triticina either prior to or after fungicide treatments. After inoculation the plants were kept in a dark dew room at 22° C. with 100% relative humidity overnight to permit spores to germinate and infect the leaf. The plants were then transferred to a greenhouse set at 24° C. for disease to develop. Fungicide formulation, application and disease assessment followed the procedures as described in the Example A.

Zymoseptoria tritici = experiment: Leaf blotch of wheat (SEPTTR), disease control on wheat seedlings; type: in vivo; conditions: for pest or weed control at 121.5 g/ha: low volume application at 121.5 g/H; for pest or weed control at 100 ppm: high volume application at 100 ppm
Method: Technical grades of materials were dissolved in acetone, which were then mixed with nine volumes of water containing 110 ppm Triton X-100. The fungicide solutions were applied onto wheat seedlings using an automated booth sprayer to run-off. All sprayed plants were allowed to air dry prior to further handling. All fungicides were evaluated using the aforementioned method for their activity vs. all target diseases, unless stated otherwise. Wheat leaf blotch and brown rust activity were also evaluated using track spray applications, in which case the fungicides were formulated as EC formulations, containing 0.1% Trycol 5941 in the spray solutions. Wheat plants (variety Yuma) were grown from seed in a greenhouse in 50% mineral soil/50% soil-less Metro mix until the first leaf was fully emerged, with 7-10 seedlings per pot. These plants were inoculated with an aqueous spore suspension of Zymoseptoria tritici either prior to or after fungicide treatments. After inoculation the plants were kept in 100% relative humidity (one day in a dark dew chamber followed by two to three days in a lighted dew chamber at 20° C.) to permit spores to germinate and infect the leaf. The plants were then transferred to a greenhouse set at 20° C. for disease to develop. When disease symptoms were fully expressed on the 1st leaves of untreated plants, infection levels were assessed on a scale of 0 to 100 percent disease severity. Percent disease control was calculated using the ratio of disease severity on treated plants relative to untreated plants.

[1] = 24 h, 1 Day Protectant, read-out: PUCCRT disease control, 1DP, LV activity
[2] = 72 h, 3 Day Curative, read-out: PUCCRT disease control, 3DC, LV activity
[3] = 24 h, 1 Day Protectant, read-out: SEPTTR disease control, 1DP, LV activity
[4] = 72 h, 3 Day Curative, read-out: SEPTTR disease control, 3DC, LV activity
[5] = 24 h, 1 Day Protectant, read-out: PUCCRT disease control, 1DP, HV activity
[6] = 72 h, 3 Day Curative, read-out: PUCCRT disease control, 3DC, HV activity
[7] = 24 h, 1 Day Protectant, read-out: SEPTTR disease control, 1DP, HV activity
[8] = 72 h, 3 Day Curative, read-out: SEPTTR disease control, 3DC, HV activity
[9] = 24 h, 1 Day Protectant, wheat brown rust, read-out: PUCCRT 1DP disease control, LV activity
[10] = 72 h, 3 Day Curative, wheat brown rust, read-out: PUCCRT 3DC disease control, LV activity
[11] = 24 h, 1 Day Protectant, wheat leaf blotch, read-out: SEPTTR 1DP disease control, LV activity
[12] = 72 h, 3 Day Curative, wheat leaf blotch, read-out: SEPTTR 3DC disease control, LV activity

Row | Structure (SMILES) | pest or weed control at 100 ppm (Puccinia triticina; [5]) [%] | pest or weed control at 100 ppm (Puccinia triticina; [6]) [%] | pest or weed control at 100 ppm (Zymoseptoria tritici; [7]) [%] | pest or weed control at 100 ppm (Zymoseptoria tritici; [8]) [%] | also measured
1 | COc1ccccc1[C@H](C(C)C)[C@H](C)OC(=O)[C@H](C)NC(=O)c1nccc(OC)c1OCOC(C)=O [Compound 263] | – | – | – | – | pest or weed control at 121.5 g/ha (Puccinia triticina; [1]): > 80%; pest or weed control at 121.5 g/ha (Puccinia triticina; [2]): > 80%; pest or weed control at 121.5 g/ha (Zymoseptoria tritici; [3]): < 80%; pest or weed control at 121.5 g/ha (Zymoseptoria tritici; [4]): > 80%
2 | COc1cc(C)ccc1[C@H](C(C)C)[C@H](C)OC(=O)[C@H](C)NC(=O)c1nccc(OC)c1OC(C)=O [Compound 253] | – | – | – | – | pest or weed control at 121.5 g/ha (Puccinia triticina; [1]): > 80%; pest or weed control at 121.5 g/ha (Puccinia triticina; [2]): > 80%; pest or weed control at 121.5 g/ha (Zymoseptoria tritici; [3]): < 80%
3 | CCC(CC)[C@@H](c1ccccc1)C(C)OC(=O)[C@H](C)NC(=O)c1nccc(OC)c1O (stereo partly drawn) [Compound 112] | > 80 | > 80 | > 80 | > 80 | –
4 | COCCC(=O)Oc1c(OC)ccnc1C(=O)N[C@@H](C)C(=O)O[C@@H](C)[C@H](c1ccc(F)c(C)c1)C(C)C [Compound 246] | – | – | – | – | pest or weed control at 121.5 g/ha (Puccinia triticina; [1]): > 80%; pest or weed control at 121.5 g/ha (Puccinia triticina; [2]): > 80%; pest or weed control at 121.5 g/ha (Zymoseptoria tritici; [3]): > 80%
5 | COc1cc(F)ccc1[C@@H](C1CCCCC1)[C@H](C)OC(=O)[C@H](C)NC(=O)c1nccc(OC)c1O [Compound 139] | > 80 | < 80 | > 80 | < 0 | –
6 | COc1ccnc(C(=O)N[C@H](C(=O)O[C@@H](C)[C@H](c2ccc(F)cc2C)C(C)C)C(C)C)c1O [Compound 318] | > 80 | > 80 | < 80 | < 80 | –
7 | COc1ccnc(C(=O)N[C@@H](C)C(=O)O[C@@H](C)[C@H](c2ccc3c(c2)OCO3)C(C)C)c1O [Compound 334] | > 80 | > 80 | < 80 | < 0 | –
8 | COc1ccnc(C(=O)N[C@@H](C)C(=O)O[C@@H](C)[C@@H](c2ccccc2)C2CCCC2)c1O [Compound 106] | < 80 | < 0 | < 0 | < 0 | –
9 | COc1ccnc(C(=O)N[C@@H](C)C(=O)OC(C)[C@H](c2ccccc2)C2CCCC2)c1O (stereo partly drawn) [Compound 113] | > 80 | > 80 | > 80 | > 80 | –
10 | COc1ccnc(C(=O)N[C@@H](C)C(=O)O[C@@H](C)[C@H](c2cc(F)ccc2C)C(C)C)c1O [Compound 324] | > 80 | > 80 | < 80 | < 80 | –
11 | COc1ccnc(C(=O)N[C@@H](C)C(=O)O[C@@H](C)[C@@H](c2ccc(F)cc2C)C(C)C)c1O [Compound 116] | > 80 | < 0 | < 0 | < 80 | –
12 | COc1ccnc(C(=S)N[C@@H](C)C(=O)OC(C)[C@H](c2ccccc2)C2CCCC2)c1O (stereo partly drawn) [Compound 114] | > 80 | < 80 | > 80 | < 80 | –
13 | COc1ccnc(C(=O)N[C@@H](C)C(=O)O[C@@H](C)[C@H](c2cc(F)ccc2F)C(C)C)c1OC(C)=O [Compound 392] | – | – | – | – | pest or weed control at 121.5 g/ha (Puccinia triticina; [9]): > 80%; pest or weed control at 121.5 g/ha (Puccinia triticina; [10]): > 80%; pest or weed control at 121.5 g/ha (Zymoseptoria tritici; [11]): < 80%; pest or weed control at 121.5 g/ha (Zymoseptoria tritici; [12]): > 80%
14 | COc1ccnc(C(=O)N[C@@H](CC(C)C)C(=O)O[C@@H](C)[C@H](c2ccc(F)cc2C)C(C)C)c1O [Compound 320] | < 80 | < 80 | < 80 | < 80 | –
15 | COc1ccnc(C(=O)N[C@@H](C)C(=O)O[C@@H](C)[C@H](c2ccc(F)cc2C)C2CCCCC2)c1O [Compound 123] | > 80 | > 80 | > 80 | > 80 | –
16 | CCC(C)[C@@H](c1ccc(F)cc1OC)[C@H](C)OC(=O)[C@H](C)NC(=O)c1nccc(OC)c1O (stereo partly drawn) [Compound 146] | > 80 | > 80 | < 80 | > 80 | –
17 | COc1ccc([C@H](C(C)C)[C@H](C)OC(=O)[C@H](C)NC(=O)c2nccc(OC)c2OCOC(C)=O)c(F)c1 [Compound 257] | – | – | – | – | pest or weed control at 121.5 g/ha (Puccinia triticina; [1]): > 80%; pest or weed control at 121.5 g/ha (Puccinia triticina; [2]): > 80%; pest or weed control at 121.5 g/ha (Zymoseptoria tritici; [3]): > 80%
18 | COc1ccnc(C(=O)N[C@@H](C)C(=O)O[C@@H](C)[C@H](c2cccc(C)c2C)C(C)C)c1O [Compound 326] | > 80 | > 80 | < 80 | > 80 | –
19 | CCC(C)[C@H](c1ccc(F)cc1C)[C@H](C)OC(=O)[C@H](C)NC(=O)c1nccc(OC)c1O (stereo partly drawn) [Compound 120] | > 80 | < 0 | < 0 | < 80 | –
20 | COc1ccnc(C(=O)N[C@@H](C)C(=O)O[C@@H](C)[C@H](c2cccc(C)c2)C(C)C)c1OC(C)=O [Compound 391] | – | – | – | – | pest or weed control at 121.5 g/ha (Puccinia triticina; [9]): > 80%; pest or weed control at 121.5 g/ha (Puccinia triticina; [10]): < 80%; pest or weed control at 121.5 g/ha (Zymoseptoria tritici; [11]): < 80%; pest or weed control at 121.5 g/ha (Zymoseptoria tritici; [12]): < 80%
21 | COc1ccnc(C(=O)N[C@@H](C)C(=O)O[C@@H](C)[C@@H](c2ccc(C)cc2C)C2CCC2)c1O [Compound 149] | < 80 | < 80 | < 80 | > 80 | –
22 | CCC(CC)[C@@H](c1ccc(F)cc1OC)[C@H](C)OC(=O)[C@H](C)NC(=O)c1nccc(OC)c1O [Compound 145] | > 80 | > 80 | < 80 | > 80 | –
23 | CCC(CC)[C@@H](c1ccc(F)cc1C)[C@H](C)OC(=O)[C@H](C)NC(=O)c1nccc(OC)c1O [Compound 125] | > 80 | < 80 | > 80 | > 80 | –
24 | COc1ccc([C@H](C(C)C)[C@H](C)OC(=O)[C@H](C)NC(=O)c2nccc(OC)c2OCOC(C)=O)cc1F [Compound 258] | – | – | – | – | pest or weed control at 121.5 g/ha (Puccinia triticina; [1]): > 80%; pest or weed control at 121.5 g/ha (Puccinia triticina; [2]): < 80%; pest or weed control at 121.5 g/ha (Zymoseptoria tritici; [3]): < 80%
25 | CCC(CC)[C@@H](c1ccccc1C)[C@H](C)OC(=O)[C@H](C)NC(=O)c1nccc(OC)c1OC(=O)C(C)C [Compound 387] | – | – | – | – | pest or weed control at 121.5 g/ha (Puccinia triticina; [9]): > 80%; pest or weed control at 121.5 g/ha (Puccinia triticina; [10]): < 80%; pest or weed control at 121.5 g/ha (Zymoseptoria tritici; [11]): < 80%; pest or weed control at 121.5 g/ha (Zymoseptoria tritici; [12]): > 80%
26 | COc1ccc([C@H](C(C)C)[C@H](C)OC(=O)[C@H](C)NC(=O)c2nccc(OC)c2OCOC(C)=O)c(OC)c1 [Compound 264] | – | – | – | – | pest or weed control at 121.5 g/ha (Puccinia triticina; [1]): > 80%; pest or weed control at 121.5 g/ha (Puccinia triticina; [2]): > 80%; pest or weed control at 121.5 g/ha (Zymoseptoria tritici; [3]): < 80%; pest or weed control at 121.5 g/ha (Zymoseptoria tritici; [4]): < 80%
27 | COc1ccnc(C(=S)N[C@@H](C)C(=O)O[C@@H](C)[C@H](c2ccc(F)cc2C)C(C)C)c1O [Compound 136] | > 80 | > 80 | > 80 | > 80 | –
28 | COc1ccnc(C(=O)N[C@@H](C)C(=O)O[C@@H](C)[C@H](c2ccc(OC(C)C)cc2)C(C)C)c1O [Compound 336] | > 80 | < 80 | < 80 | < 80 | –
